In article PMC4929710, “Specificity and mechanism of action of alpha-helical membrane-active peptides interacting with model and biological membranes by single-molecule force spectroscopy” (Scientific Reports, 2016):
Where two headings read alike, the source gives them in different places.

Experiments:
E. coli ATCC25922 = assay type: cell-based
Procedure: (§1) Then, 10 μL of peptides was added. […] All assays were repeated in triplicate.

P. aeruginosa ATCC27853 = assay type: cell-based
Procedure: as §1

S. aureus ATCC25923 = assay type: cell-based
Procedure: as §1

S. epidermidis ATCC12228 = assay type: cell-based
Procedure: as §1

[1] = tested on: gram-negative bacteria (P. aeruginosa and E. coli); assay type: cell-based
Procedure: as §1

[2] = tested on: gram-positive bacteria (S. aureus and S. epidermidis); assay type: cell-based
Procedure: as §1

3T3-L1 cells = assay type: cell-based, mouse; conditions: 24 h
Procedure: (§2) The MTT cell proliferation assay was used to investigate the anticancer activity and cytotoxicity of MAPs against cancer cell lines (HeLa, A549, SGC-7901, and B16) and normal cells (3T3-L1), respectively. Cells (5 × 10^3) were seeded in 96-well plates and incubated overnight. The peptide samples were then added to cells with final concentrations ranging from 1 μM to 125 μM. After 24 h, 20 μL of 5 mg/mL MTT solution in PBS was added to the cells and treated for 4 h at 37 °C. The formazan crystals were dissolved by 150 μL of dimethyl sulfoxide (DMSO). Finally, the absorbance was determined at 492 nm. The results were expressed as IC50, representing the concentration at which cell viability was reduced by 50%. All assays were repeated in triplicate.

B16 cells = assay type: cell-based, mouse; conditions: 24 h
Procedure: as §2

PC/PG (7:3 w/w) LUVs = experiment: Tryptophan fluorescence with LUVs; assay type: binding; conditions: PC/PG (7:3 w/w) LUVs versus HEPES buffer, 25 °C
Description: In order to investigate the interaction between peptides and difference types of cell membranes, three different LUVs were used to mimic a prokaryotic cell membrane (PC/PG), a normal eukaryotic cell membrane (PC/Chol), and a cancer cell membrane (PC/SM/PE/PS/Chol). Tryptophan residue in the peptide sequence was used as a fluorescent probe to examine the interaction of peptides with model membranes. […] For example, in the PC/PG (7:3 w/w) anionic prokaryotic mimicking model membrane, peptides V13L and A12L/A20L had the strongest hydrophobicity with blue shift values of approximately 37 nm and 38 nm, respectively. Conversely, peptide V13E with a negative charge of glutamic acid residue, and peptide L6A/L17A with the lowest hydrophobicity had blue shift values of approximately 18 nm and 17 nm, respectively. […] In addition, within PC/SM/PE/PS/Chol (4.35:4.35:1:0.3:1 w/w) as a cancer-mimicking model membrane, the same results could be obtained in that peptide hydrophobicity correlates with anticancer activity and the blue shift values of peptides.
In accordance with previously described methods, LUVs were prepared with PC/PG (7:3 w/w), PC/Chol (8:1 w/w), and PC/SM/PE/PS/Chol (4.35:4.35:1:0.3:1 w/w) to mimic prokaryotic cell, […], membranes, respectively. Lipids using the freeze-thaw method as described previously, followed by extrusion through […] double-stacked nuclepore filters using an Mini-Extruder (Avanti Polar Lipids, Inc.)[11][27].
Three kinds of LUVs were prepared and cultured in HEPES buffer (pH 7.4, 10 mM HEPES, 150 mM NaCl) and the molar concentration was adjusted to 100 μM. A total of 14 μL of 100 μM MAPs was mixed with 686 μL of 100 μM liposomes at 25 °C for 10 min. A Shimadzu RF-5301PC, (excitation wavelength of […], emission wavelength of 300–450 nm) was used to measure the tryptophan fluorescence. Potassium iodide (KI) as a quencher was added to the previous reaction system for a final concentration of 0.02–0.08 M, respectively. The experimental data were plotted according to the Stern–Volmer equation F0/F = 1 + Ksv[Q], where F0 and F are the fluorescence intensity in the absence or presence of a quencher at concentration [Q], respectively, and Ksv is the Stern–Volmer quenching constant.

bacteria = conditions: text summary of Table 1, strain not specified
Procedure: Minimal inhibitory concentrations (MICs) were used to represent the antimicrobial activity of MAPs and were determined by the standard microtiter dilution method. Four bacterial strains including two gram-negative bacterial strains of E. coli and P. aeruginosa, and two gram-positive bacterial strains of S. aureus and S. epidermidis were selected as representative prokaryotes. A single bacterial colony was picked and cultured in Mueller–Hinton (MH) medium for 18–20 h. The bacterial solution was diluted in the same medium for a final inoculum of 5 × 10^5 colony-forming units (CFU)/mL and placed in 96-well plates with 90 μL per well. Then, 10 μL of peptides was added. MICs were determined as the lowest peptide concentration that inhibited bacterial growth after incubation for 24 h at 37 °C. All assays were repeated in triplicate. GM is the geometric mean of MIC values from two gram-positive bacteria strains or two gram-negative bacteria strains in this table.

[3] = tested on: human red blood cells (hRBCs); experiment: Hemolytic activity assay (MHC); assay type: cell-based; conditions: 1% final hRBCs in PBS (70 μL of 2% + 70 μL peptide), 37 °C, 2 h, absorbance 578 nm
Procedure: Peptide samples were serially diluted with phosphate-buffered saline (PBS) and added to 96-well plates (round bottom) with 70 μL per well. Healthy human red blood cells (hRBCs) were collected using an anticoagulation tube with EDTAK2 and centrifuged at 1,000 rpm for 5 min. The erythrocytes were washed three times, resuspended in PBS, and then diluted to a concentration of 2% in PBS. A total of 70 μL of 2% erythrocytes was added to each well and incubated at 37 °C for 2 h. The plates were centrifuged for 10 min at 3,000 rpm and the supernatant was transferred to a 96-well plate (flat bottom). The release of hemoglobin was determined by measuring the absorbance of the supernatant at 578 nm. The hemolytic activity was determined as the minimal peptide concentration that caused hemolysis [minimal hemolytic concentration (MHC)]. Erythrocytes in PBS and distilled water were used as the control of 0% and 100% hemolysis, respectively.

[4] = MH medium, 5 × 10^5 CFU/mL, 24 h, 37 °C, triplicate
[5] = geometric mean of MIC values from two gram-negative strains
[6] = geometric mean of MIC values from two gram-positive strains
[7] = normal cells, MTT, 1-125 μM, triplicate, read-out: IC50 3T3-L1
[8] = MTT, 1-125 μM, triplicate, read-out: IC50 B16

Molecule	G− MIC E. coli ATCC25922 (E. coli ATCC25922; ATCC25922, 24 h) [µM]	G− MIC P. aeruginosa ATCC27853 (P. aeruginosa ATCC27853; ATCC27853, 24 h) [µM]	G+ MIC S. aureus ATCC25923 (S. aureus ATCC25923; ATCC25923, 24 h) [µM]	G+ MIC S. epidermidis ATCC12228 (S. epidermidis ATCC12228; ATCC12228, 24 h) [µM]	G− MIC GM [1] [µM]	G+ MIC GM [2] [µM]	IC50 (3T3-L1 cells) [µM]	IC50 (B16 cells) [µM]	G− MIC E. coli ATCC25922 (E. coli ATCC25922; [4]) [µM]	G− MIC P. aeruginosa ATCC27853 (P. aeruginosa ATCC27853; [4]) [µM]	G+ MIC S. aureus ATCC25923 (S. aureus ATCC25923; [4]) [µM]	G+ MIC S. epidermidis ATCC12228 (S. epidermidis ATCC12228; [4]) [µM]	G− MIC GM [1, 5] [µM]	G+ MIC GM [2, 6] [µM]	IC50 (3T3-L1 cells; [7]) [µM]	IC50 (B16 cells; [8]) [µM]	PC/PG Blue shift (PC/PG (7:3 w/w) LUVs) [nm]	MIC value (bacteria)	MHC (minimal hemolytic concentration) [3] [µM]
Ac-KWKSFLKTFKSAEKTVLHTALKAISS-NH2 [Peptide V13E]	64	125	125	125	89.44	125	> 125	120	–	–	–	–	–	–	–	–	–	–	–
Ac-KWKSFAKTFKSAKKTVAHTALKAISS-NH2 [L6A/L17A]	–	–	–	–	–	–	–	–	125	125	125	125	125	125	> 125	> 125	~17	approximately 125 μM	–
CC[C@H](C)[C@H](NC(=O)[C@H](C)NC(=O)[C@H](CCCCN)NC(=O)[C@H](CC(C)C)NC(=O)[C@H](C)NC(=O)[C@@H](NC(=O)[C@H](Cc1cnc[nH]1)NC(=O)[C@H](CC(C)C)NC(=O)[C@@H](NC(=O)[C@@H](NC(=O)[C@H](CCCCN)NC(=O)[C@H](CCCCN)NC(=O)[C@H](C)NC(=O)[C@H](CO)NC(=O)[C@H](CCCCN)NC(=O)[C@H](Cc1ccccc1)NC(=O)[C@@H](NC(=O)[C@H](CCCCN)NC(=O)[C@H](CC(C)C)NC(=O)[C@H](Cc1ccccc1)NC(=O)[C@H](CO)NC(=O)[C@H](CCCCN)NC(=O)[C@H](Cc1c[nH]c2ccccc12)NC(=O)[C@H](CCCCN)NC(C)=O)[C@@H](C)O)[C@@H](C)O)C(C)C)[C@@H](C)O)C(=O)N[C@@H](CO)C(=O)N[C@@H](CO)C(N)=O [Peptide V13K]	–	–	–	–	–	–	–	–	8	8	32	4	8	11.31	26.2	11.9	28	–	250
Ac-KWKSFLKTFKSALKTVLHTALKAISS-NH2 [Peptide V13L]	4	8	8	2	5.66	4	6.55	3.51	–	–	–	–	–	–	–	–	–	–	–
